For one compound, Activity and LD50 results are on record in ChEMBL document CHEMBL1149058, “Further Chemical Studies of Mediterranean and Atlantic Hypselodoris Nudibranchs: A New Furanosesquiterpenoid from Hypsdodoris webbi” (J Nat Prod, 1994).

The subject of data set [1] is Gambusia affinis. As to the kind of experiment: Ichthyotoxicity against Gambusia affinis at 10 ppm within 24 hrs. It is filed as organism-based. As to conditions: in vivo.
Data set [2] concerns Artemia salina. As to the kind of experiment: Toxicity against Artemia salina. As to conditions: in vivo. In kind it is organism-based.

In the case of `CC1=C[C@@H]2Cc3occc3C(C)(C)[C@@H]2C=C1`, the Activity result in data set [1] was “Toxic”. Further, the LD50 in data set [2] was found to be 1.52 ppm.
